Assay results as given in publication PMC5445473, “Identification of Enterococcus faecalis enzymes with azoreductases and/or nitroreductase activity” (BMC Microbiology, 2017).

How the values were obtained:
Test in all cases: LC-ESI-MS of natively purified enzyme; activity of apo-enzyme restored by FMN
Format in all cases: binding
Conditions in all cases: native purification; apo-enzyme assay with 5 uM FMN, pH 7, 35 °C
EF0404 = biological target: T1, EF0404 (Enterococcus faecalis, UniProt Q838N5)
T1 construct: gene EF_0404; E. coli XL1Blue; about 25 kDa; forward primer starts after the initiator Met
T1 sequence (Q838N5 2-211): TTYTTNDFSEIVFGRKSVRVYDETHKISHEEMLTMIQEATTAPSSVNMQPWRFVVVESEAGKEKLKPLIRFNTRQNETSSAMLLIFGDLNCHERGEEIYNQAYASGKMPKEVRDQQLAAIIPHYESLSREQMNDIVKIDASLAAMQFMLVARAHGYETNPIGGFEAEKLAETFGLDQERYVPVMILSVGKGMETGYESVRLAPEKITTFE

AzoA = biological target: T2, AzoA (Enterococcus faecalis, UniProt Q831B2)
T2 construct: gene azoR; E. coli XL1Blue; about 25 kDa; forward primer starts after the initiator Met
T2 sequence (Q831B2 2-208): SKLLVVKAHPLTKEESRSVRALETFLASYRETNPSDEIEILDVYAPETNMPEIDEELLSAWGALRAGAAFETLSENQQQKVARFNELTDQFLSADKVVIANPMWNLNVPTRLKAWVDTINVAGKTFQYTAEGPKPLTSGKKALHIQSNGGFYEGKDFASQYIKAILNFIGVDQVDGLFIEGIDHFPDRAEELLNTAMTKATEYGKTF

EF0648 = biological target: T3, EF0648 (Enterococcus faecalis, UniProt Q838C2)
T3 construct: gene EF_0648; E. coli XL1Blue; about 25 kDa
T3 sequence (Q838C2 2-205): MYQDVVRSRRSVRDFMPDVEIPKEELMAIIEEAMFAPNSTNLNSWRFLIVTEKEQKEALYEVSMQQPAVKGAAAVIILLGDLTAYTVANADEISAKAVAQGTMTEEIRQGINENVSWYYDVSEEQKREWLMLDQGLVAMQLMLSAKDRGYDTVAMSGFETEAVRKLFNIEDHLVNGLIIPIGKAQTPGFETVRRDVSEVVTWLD

EF1181 = biological target: T4, EF1181 (Enterococcus faecalis, UniProt Q836D4)
T4 construct: gene EF_1181; E. coli XL1Blue; about 30 kDa; forward primer starts after the initiator Met
T4 sequence (Q836D4 2-244): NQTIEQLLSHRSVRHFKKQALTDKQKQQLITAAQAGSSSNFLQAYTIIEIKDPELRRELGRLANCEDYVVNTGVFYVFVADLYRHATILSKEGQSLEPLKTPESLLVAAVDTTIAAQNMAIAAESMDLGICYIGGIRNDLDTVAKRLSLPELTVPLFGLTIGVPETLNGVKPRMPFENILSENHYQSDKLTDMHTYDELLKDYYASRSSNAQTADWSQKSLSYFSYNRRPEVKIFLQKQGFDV

EF0655 = biological target: T5, EF0655 (Enterococcus faecalis, UniProt Q838B7)
T5 construct: gene EF_0655; E. coli XL1Blue; about 22 kDa; forward primer starts after the initiator Met
T5 sequence (Q838B7 2-198): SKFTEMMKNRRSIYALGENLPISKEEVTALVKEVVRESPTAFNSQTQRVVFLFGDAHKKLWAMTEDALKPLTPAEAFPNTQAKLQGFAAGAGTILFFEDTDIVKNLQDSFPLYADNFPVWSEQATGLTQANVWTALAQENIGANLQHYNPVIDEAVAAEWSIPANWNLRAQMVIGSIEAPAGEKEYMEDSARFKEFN

## Cc1cc2nc3c(=O)[nH]c(=O)nc-3n(C[C@H](O)[C@H](O)[C@H](O)COP(=O)(O)O)c2cc1C [FMN]
EF0404
  LC-ESI-MS of natively purified enzyme; activity of apo-enzyme restored by FMN: confirmed FMN presence for the enzymes purified using native conditions
AzoA
  LC-ESI-MS of natively purified enzyme; activity of apo-enzyme restored by FMN: confirmed FMN presence for the enzymes purified using native conditions
EF0648
  LC-ESI-MS of natively purified enzyme; activity of apo-enzyme restored by FMN: confirmed FMN presence for the enzymes purified using native conditions
EF1181
  LC-ESI-MS of natively purified enzyme; activity of apo-enzyme restored by FMN: confirmed FMN presence for the enzymes purified using native conditions
EF0655
  LC-ESI-MS of natively purified enzyme; activity of apo-enzyme restored by FMN: confirmed FMN presence for the enzymes purified using native conditions
